Test results from patent publication US12528811B2, “Substituted cyclopenta[2,1-b:5,1-b’]dipyrroles as Janus kinase (JAK) inhibitors” (UNIVERSITÄT BERN, priority 2019, dated 2026).

How the values were obtained:
Type in all cases: biochemical
TYK2 = TYK2 (Homo sapiens, UniProt P29597); assay: TYK2 enzymatic kinase inhibition assay; details: read-out: Kinase inhibitory activities given in IC50 (nM), TYK2
JAK2 = JAK2 (Homo sapiens, UniProt O60674); assay: JAK2 enzymatic kinase inhibition assay; details: read-out: Kinase inhibitory activities given in IC50 (nM), JAK2
JAK1 = JAK1 (Homo sapiens, UniProt P23458); assay: JAK1 enzymatic kinase inhibition assay; details: read-out: Kinase inhibitory activities given in IC50 (nM), JAK1
JAK3 = target: T1, JAK3 (Homo sapiens, UniProt P52333); assay: JAK3 enzymatic kinase inhibition assay; details: read-out: Kinase inhibitory activities given in IC50 (nM), JAK3
T1 sequence (P52333 1-1124): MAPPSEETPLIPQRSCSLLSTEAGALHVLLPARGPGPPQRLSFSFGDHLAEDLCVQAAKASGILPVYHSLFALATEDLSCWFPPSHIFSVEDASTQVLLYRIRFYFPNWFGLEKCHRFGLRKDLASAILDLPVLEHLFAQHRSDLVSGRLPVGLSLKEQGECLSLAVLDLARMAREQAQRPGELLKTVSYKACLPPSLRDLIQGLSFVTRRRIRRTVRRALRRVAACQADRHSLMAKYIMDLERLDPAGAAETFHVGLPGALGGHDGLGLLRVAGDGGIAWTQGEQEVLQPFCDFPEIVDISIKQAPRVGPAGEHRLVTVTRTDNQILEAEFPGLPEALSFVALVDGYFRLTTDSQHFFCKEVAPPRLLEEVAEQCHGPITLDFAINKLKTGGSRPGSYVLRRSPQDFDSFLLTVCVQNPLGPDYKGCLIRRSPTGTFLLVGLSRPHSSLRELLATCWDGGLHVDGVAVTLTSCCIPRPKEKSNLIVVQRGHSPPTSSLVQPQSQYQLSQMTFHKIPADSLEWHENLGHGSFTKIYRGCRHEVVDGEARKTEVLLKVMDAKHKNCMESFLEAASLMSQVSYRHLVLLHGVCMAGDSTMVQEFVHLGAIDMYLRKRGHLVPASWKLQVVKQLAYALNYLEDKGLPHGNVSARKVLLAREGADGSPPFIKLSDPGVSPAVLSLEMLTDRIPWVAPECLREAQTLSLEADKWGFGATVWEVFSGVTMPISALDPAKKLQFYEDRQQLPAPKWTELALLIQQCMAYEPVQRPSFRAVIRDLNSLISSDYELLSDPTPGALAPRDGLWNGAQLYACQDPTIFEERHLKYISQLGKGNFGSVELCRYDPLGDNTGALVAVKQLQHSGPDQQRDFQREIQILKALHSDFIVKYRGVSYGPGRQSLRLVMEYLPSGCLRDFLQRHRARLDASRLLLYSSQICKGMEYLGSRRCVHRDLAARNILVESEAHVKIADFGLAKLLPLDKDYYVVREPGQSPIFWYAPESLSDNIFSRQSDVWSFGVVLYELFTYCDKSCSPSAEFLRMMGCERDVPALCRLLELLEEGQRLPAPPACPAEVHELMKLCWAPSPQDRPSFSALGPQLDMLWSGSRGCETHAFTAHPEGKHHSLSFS

Sequence of JAK1 (P23458 whole entry): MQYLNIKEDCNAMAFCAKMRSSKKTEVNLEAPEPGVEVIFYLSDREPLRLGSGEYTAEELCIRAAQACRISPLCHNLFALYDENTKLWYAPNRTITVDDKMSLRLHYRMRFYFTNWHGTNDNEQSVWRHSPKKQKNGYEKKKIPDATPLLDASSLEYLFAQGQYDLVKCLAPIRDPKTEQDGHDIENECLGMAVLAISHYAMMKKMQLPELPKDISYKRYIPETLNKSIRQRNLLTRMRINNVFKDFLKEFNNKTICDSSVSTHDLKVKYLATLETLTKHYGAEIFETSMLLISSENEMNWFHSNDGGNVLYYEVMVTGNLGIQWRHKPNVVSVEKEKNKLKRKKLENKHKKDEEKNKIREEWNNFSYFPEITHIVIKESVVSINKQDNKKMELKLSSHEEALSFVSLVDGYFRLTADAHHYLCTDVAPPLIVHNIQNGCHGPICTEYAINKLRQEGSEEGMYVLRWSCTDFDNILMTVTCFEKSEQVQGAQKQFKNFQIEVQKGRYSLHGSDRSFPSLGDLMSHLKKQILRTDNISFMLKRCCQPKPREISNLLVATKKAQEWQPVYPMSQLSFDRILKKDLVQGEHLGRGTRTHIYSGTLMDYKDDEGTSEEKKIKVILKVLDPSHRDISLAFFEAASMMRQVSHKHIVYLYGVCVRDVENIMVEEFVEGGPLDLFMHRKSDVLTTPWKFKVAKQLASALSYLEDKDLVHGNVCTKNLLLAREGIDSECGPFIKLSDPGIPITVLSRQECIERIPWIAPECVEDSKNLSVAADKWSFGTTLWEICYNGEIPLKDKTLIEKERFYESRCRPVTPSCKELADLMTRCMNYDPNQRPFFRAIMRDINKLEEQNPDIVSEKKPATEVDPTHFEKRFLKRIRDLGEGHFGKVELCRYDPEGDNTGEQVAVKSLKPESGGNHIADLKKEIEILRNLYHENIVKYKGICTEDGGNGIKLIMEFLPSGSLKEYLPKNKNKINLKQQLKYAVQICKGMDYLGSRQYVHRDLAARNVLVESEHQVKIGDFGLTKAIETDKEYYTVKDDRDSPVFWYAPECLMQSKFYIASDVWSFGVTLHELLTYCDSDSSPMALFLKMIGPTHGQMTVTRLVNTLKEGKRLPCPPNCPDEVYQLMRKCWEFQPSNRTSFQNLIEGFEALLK
Sequence of TYK2 (P29597 whole entry): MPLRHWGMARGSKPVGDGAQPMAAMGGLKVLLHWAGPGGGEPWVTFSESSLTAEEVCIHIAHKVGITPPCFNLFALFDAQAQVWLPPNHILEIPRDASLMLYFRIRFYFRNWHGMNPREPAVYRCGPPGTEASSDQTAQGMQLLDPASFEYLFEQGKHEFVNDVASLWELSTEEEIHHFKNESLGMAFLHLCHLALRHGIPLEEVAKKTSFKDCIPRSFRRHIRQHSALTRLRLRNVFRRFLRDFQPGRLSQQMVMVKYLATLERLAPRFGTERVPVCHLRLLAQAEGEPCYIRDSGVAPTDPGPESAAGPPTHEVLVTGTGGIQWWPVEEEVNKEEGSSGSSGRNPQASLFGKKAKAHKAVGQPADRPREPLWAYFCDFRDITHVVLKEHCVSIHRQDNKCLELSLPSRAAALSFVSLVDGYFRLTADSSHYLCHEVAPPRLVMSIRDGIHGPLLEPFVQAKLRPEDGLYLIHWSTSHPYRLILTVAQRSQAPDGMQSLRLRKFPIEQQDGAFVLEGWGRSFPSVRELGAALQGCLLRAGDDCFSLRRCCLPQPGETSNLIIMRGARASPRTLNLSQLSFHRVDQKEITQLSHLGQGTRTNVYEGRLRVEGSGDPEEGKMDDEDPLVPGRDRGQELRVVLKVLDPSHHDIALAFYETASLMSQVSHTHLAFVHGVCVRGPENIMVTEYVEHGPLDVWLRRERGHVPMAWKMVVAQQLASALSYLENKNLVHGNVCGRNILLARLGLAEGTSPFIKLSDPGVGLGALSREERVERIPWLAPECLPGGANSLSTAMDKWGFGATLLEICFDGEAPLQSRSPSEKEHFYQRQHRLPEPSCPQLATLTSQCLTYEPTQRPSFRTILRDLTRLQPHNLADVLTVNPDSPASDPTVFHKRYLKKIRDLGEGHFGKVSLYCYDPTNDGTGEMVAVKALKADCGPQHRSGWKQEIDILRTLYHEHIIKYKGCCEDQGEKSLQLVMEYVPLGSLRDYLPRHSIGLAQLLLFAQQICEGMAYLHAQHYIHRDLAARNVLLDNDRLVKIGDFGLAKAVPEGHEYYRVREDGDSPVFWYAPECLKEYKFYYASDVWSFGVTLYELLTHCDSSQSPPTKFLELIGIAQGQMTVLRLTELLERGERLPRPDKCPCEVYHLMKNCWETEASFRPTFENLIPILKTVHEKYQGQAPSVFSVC
Sequence of JAK2 (O60674 whole entry): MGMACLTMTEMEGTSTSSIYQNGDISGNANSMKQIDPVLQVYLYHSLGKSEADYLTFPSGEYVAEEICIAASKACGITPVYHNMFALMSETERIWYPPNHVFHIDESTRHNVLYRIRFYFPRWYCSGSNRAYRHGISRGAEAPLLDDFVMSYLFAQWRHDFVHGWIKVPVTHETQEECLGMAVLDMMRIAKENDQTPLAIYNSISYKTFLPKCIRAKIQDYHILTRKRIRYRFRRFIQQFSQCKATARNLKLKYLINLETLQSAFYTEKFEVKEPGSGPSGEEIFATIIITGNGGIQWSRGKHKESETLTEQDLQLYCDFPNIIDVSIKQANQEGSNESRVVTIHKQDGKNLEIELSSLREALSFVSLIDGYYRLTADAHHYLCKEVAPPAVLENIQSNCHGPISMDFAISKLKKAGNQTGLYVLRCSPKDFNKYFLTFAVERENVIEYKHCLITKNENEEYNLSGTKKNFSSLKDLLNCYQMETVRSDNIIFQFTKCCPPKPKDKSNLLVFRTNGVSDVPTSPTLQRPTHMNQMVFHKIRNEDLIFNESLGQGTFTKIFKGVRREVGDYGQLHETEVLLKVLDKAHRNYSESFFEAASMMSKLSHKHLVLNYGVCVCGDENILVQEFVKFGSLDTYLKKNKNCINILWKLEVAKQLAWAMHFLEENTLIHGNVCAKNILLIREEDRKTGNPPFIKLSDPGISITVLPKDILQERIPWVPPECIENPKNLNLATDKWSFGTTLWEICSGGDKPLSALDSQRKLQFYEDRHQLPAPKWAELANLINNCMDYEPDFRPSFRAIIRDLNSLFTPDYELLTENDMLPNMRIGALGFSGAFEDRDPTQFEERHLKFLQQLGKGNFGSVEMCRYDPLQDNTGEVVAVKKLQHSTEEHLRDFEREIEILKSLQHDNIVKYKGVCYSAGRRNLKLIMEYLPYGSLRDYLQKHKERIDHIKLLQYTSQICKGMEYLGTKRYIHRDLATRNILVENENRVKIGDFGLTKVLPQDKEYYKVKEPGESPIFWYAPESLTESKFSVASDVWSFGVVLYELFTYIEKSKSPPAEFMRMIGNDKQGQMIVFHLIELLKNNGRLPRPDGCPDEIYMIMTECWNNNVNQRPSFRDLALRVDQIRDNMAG

Question: Which IC50 (TYK2) does the source give for `N#CCC(=O)N1CCC23CCN(c4ncnc5[nH]ccc45)C2CCC13` (centres unmarked) [KMC420, 3-(6-(7H-pyrrolo[2,3-d]pyrimidin-4-yl)octahydrocyclopenta[2,1-b:5,1-b′]dipyrrol-3(3aH)-yl)-3-oxopropanenitrile] here?
Answer: The IC50 was 26 nM.

Question: And the IC50 (JAK2)?
Answer: The IC50 was 13 nM.

Question: What about the IC50 (JAK1) of the same compound?
Answer: The IC50 was 1 nM.

Question: And the IC50 (JAK3)?
Answer: Its IC50 is 29 nM.

Question: `C=CC(=O)N1CCC23CCN(c4ncnc5[nH]ccc45)C2CCC13` (centres unmarked) [KMC423, 1-(6-(7H-pyrrolo[2,3-d]pyrimidin-4-yl)octahydrocyclopenta[2,1-b:5,1-b′]dipyrrol-3(3aH)-yl)prop-2-en-1-one] was tested. Which IC50 (TYK2) did it give?
Answer: The IC50 was 183 nM.

Question: What about the IC50 (JAK2) of the same compound?
Answer: Its IC50 is 53 nM.

Question: And the IC50 (JAK1)?
Answer: The IC50 was 30 nM.

Question: What about the IC50 (JAK3) of the same compound?
Answer: Its IC50 is 9 nM.
